31 compounds from patent publication US11912703B2, “6-azaindole compounds” (BRISTOL-MYERS SQUIBB COMPANY, priority 2017, dated 2024) can be followed below.

For assay [1], the target named is human TLR7 (Homo sapiens (Human), UniProt Q9NYK1). Kind of assay: TLR7 inhibition reporter assay (HEK-Blue SEAP). The assay is classed as cell-based. The settings on record: HEK-Blue cells overexpressing human TLR7, gardiquimod 7.5 μM stimulation. (In a reporter assay the amount or activity of a reporter protein is the signal.)
The target of assay [2] is human TLR8 (Homo sapiens (Human), UniProt Q9NR97). Kind of assay: TLR8 inhibition reporter assay (HEK-Blue SEAP).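 Note: SEAP driven by IFN-β minimal promoter with five NF-κB and AP-1 sites, compounds tested 0.05 nM to 50 µM, 22 h incubation, inhibition relative to agonist plus DMSO wells.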 The settings on record: read-out: TLR8 IC50; HEK-Blue cells overexpressing human TLR8, R848 15.9 μM stimulation, SEAP reporter.
The target of assay [3] is human TLR9 (Homo sapiens (Human), UniProt Q9NR96). Kind of assay: TLR9 inhibition reporter assay (HEK-Blue SEAP).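 Note: SEAP driven by IFN-β minimal promoter carrying five NF-κB and AP-1 sites, 22 h at 37 °C, compounds 0.05 nM–50 µM, inhibition scaled between agonist-plus-DMSO and reference-inhibitor wells.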 As to conditions: read-out: TLR9 IC50; HEK-Blue cells overexpressing human TLR9, ODN2006 5 nM stimulation, SEAP reporter.

Structures are written as SMILES. pIC50: −log10 of the molar value.

human TLR7, sequence (Q9NYK1 27-1049): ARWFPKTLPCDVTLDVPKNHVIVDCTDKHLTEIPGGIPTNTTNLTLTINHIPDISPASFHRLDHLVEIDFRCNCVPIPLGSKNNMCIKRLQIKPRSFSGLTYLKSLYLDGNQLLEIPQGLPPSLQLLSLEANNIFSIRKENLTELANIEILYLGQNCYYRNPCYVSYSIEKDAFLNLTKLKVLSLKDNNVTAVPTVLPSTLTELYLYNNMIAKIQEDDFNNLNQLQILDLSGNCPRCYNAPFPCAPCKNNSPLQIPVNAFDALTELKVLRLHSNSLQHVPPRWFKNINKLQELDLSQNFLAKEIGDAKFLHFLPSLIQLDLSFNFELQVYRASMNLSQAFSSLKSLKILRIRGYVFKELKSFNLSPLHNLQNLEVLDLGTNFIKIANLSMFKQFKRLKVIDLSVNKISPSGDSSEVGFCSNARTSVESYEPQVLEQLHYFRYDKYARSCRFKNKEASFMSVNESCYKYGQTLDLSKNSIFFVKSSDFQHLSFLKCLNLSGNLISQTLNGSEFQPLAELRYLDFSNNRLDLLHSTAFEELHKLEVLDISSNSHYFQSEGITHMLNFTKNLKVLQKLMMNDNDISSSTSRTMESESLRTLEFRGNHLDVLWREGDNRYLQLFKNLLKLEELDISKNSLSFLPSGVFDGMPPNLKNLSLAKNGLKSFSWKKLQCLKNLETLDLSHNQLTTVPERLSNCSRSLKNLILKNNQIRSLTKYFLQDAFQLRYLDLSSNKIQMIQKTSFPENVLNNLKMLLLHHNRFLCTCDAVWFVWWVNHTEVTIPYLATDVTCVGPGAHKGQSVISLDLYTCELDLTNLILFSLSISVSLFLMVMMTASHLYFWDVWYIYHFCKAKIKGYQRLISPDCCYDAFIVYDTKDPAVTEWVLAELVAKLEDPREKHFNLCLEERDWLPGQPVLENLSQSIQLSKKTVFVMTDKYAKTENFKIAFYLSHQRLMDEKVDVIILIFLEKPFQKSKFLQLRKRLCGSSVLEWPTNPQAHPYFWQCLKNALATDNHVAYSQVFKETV
human TLR8, sequence (Q9NR97 27-1041): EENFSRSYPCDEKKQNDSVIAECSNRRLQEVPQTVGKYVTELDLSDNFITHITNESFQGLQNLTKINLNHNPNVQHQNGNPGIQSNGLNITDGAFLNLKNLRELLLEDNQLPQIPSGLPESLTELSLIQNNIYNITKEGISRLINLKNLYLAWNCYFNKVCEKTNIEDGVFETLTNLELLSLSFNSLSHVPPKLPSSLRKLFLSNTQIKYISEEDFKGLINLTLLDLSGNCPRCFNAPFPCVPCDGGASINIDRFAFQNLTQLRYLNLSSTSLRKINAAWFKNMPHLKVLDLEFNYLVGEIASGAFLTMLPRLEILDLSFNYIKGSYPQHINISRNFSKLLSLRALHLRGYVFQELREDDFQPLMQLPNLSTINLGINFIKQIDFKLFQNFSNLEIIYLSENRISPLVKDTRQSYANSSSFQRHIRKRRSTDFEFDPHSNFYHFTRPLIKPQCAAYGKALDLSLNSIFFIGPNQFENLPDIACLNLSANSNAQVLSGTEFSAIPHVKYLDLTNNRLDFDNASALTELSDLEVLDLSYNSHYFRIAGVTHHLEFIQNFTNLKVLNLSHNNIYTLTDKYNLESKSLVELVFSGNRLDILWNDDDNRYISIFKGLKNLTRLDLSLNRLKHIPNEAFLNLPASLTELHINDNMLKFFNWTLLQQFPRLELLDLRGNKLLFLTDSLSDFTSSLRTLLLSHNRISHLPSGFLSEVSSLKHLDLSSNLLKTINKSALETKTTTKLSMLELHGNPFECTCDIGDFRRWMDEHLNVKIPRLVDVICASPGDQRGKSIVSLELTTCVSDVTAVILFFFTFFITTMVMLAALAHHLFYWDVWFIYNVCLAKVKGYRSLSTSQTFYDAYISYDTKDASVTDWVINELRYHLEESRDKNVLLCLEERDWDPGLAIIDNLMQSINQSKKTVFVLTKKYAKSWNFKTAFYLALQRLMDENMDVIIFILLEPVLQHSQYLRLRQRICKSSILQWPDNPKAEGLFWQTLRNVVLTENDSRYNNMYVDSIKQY
human TLR9, sequence (Q9NR96 26-1032): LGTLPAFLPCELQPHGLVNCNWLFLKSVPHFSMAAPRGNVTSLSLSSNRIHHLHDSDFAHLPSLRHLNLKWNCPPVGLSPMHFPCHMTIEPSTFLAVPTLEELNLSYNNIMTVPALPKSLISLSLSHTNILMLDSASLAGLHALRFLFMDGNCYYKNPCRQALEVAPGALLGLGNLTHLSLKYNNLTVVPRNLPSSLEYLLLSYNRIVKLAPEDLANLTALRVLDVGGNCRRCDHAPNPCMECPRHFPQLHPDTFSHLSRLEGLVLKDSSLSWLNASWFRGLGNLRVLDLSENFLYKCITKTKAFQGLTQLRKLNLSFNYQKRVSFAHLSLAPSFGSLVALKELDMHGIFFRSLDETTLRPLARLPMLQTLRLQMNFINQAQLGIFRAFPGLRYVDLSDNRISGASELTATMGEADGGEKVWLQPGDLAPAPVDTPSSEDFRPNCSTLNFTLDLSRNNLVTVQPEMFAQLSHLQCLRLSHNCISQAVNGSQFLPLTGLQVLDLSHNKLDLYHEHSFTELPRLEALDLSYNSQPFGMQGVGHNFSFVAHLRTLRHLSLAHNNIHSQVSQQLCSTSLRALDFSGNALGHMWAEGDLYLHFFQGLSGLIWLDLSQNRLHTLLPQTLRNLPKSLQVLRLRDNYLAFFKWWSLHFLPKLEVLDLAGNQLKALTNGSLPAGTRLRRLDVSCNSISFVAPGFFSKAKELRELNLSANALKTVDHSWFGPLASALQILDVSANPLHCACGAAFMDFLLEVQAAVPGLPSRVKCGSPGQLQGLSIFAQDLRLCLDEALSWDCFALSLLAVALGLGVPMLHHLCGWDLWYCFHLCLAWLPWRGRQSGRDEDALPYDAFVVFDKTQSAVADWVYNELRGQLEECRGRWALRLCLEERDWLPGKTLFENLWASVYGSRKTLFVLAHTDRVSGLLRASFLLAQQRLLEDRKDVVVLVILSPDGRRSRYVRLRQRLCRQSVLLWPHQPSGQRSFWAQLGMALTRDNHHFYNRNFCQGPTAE

As usually defined, the pIC50 is the negative decadic logarithm of the IC50, by convention in mol/L. Consider `Cc1c(-c2[nH]c3cnc(C4CCN(CC(N)=O)CC4)cc3c2C(C)C)cn2ncnc2c1C` [Example 23], for which the results for the pIC50 in assay [1], in assay [2] and in assay [3] were 8.59, 8.47 and 6.83, respectively.

With `COc1cc(-c2[nH]c3cnc(C4CCN(CC(=O)N(C)C)CC4)c(C)c3c2C(C)C)cn2ncnc12` [Example 24], the values for the pIC50 in assay [1], in assay [2] and in assay [3] were 8.01, 7.41 and 6.55, respectively.

In the case of `COc1cc(-c2[nH]c3cnc(C4CCN(CCS(C)(=O)=O)CC4)c(C)c3c2C(C)C)cn2ncnc12` [Example 25], the pIC50 is 8.64 in assay [1], 8.14 in assay [2] and 6.73 in assay [3].

For the compound `CNC(=O)CN1CCC(c2cc3c(C(C)C)c(-c4cn5ncnc5c(C)c4C)[nH]c3cn2)CC1` [Example 26], the values for the pIC50 in assay [1], in assay [2] and in assay [3] were 8.51, 8.16 and 6.20, respectively.

For `CNC(=O)CN1CCC(c2cc3c(C(C)C)c(-c4cn5ncnc5c(C)c4C)[nH]c3cn2)CC1` [Example 27], the pIC50 was 7.31 in assay [1], 7.07 in assay [2] and 6.32 in assay [3].

`Cc1c(-c2[nH]c3cnc(C4CCNCC4)cc3c2C(C)C)cn2ncnc2c1C` [Example 28]: the pIC50 in assay [1] was 7.89; in assay [2], 7.59; in assay [3] it was 6.22.

As to `Cc1c(-c2[nH]c3cnc(C4CCN(C(=O)CN(C)C)CC4)c(F)c3c2C(C)C)cn2ncnc2c1C` [Example 29], the figures for the pIC50 in assay [1], in assay [2] and in assay [3] were 8.37, 8.33 and 5.77, respectively.

For `Cc1c(-c2[nH]c3cnc(C4CCN(C5COC5)CC4)cc3c2C(C)C)cn2ncnc2c1C` [Example 30], the pIC50 in assay [1] was 8.33; in assay [2] it was 8.11; in assay [3], 6.07.

For `Cc1c(-c2[nH]c3cnc(C4CCN(CC(=O)N(C)C)CC4)cc3c2C(C)C)cn2ncnc2c1C` [Example 31], the values for the pIC50 in assay [1], in assay [2] and in assay [3] were 8.68, 8.21 and 6.88, respectively.

For `COc1cc(-c2[nH]c3cnc(C4CCN(C(=O)CN(C)C)CC4)c(C)c3c2C(C)C)cn2ncnc12` [Example 32], the pIC50 in assay [1] is 7.40; in assay [2], 6.91; in assay [3], 6.55.

Regarding `COc1cc(-c2[nH]c3cnc(C4CCN(C(C)C)CC4)c(C)c3c2C(C)C)cn2ncnc12` [Example 33], the pIC50 in assay [1] is 8.85; in assay [2], 8.16; in assay [3], 6.87.

Regarding `COc1cc(-c2[nH]c3cnc(C4CCN(CC(=O)N(C)C)CC4)c(F)c3c2C(C)C)cn2ncnc12` [Example 34], the results for the pIC50 in assay [1], in assay [2] and in assay [3] were 8.60, 8.70 and 5.82, respectively.

With `Cc1c(-c2[nH]c3cnc(C4CCN(C(C)C)CC4)cc3c2C(C)C)cn2ncnc2c1C` [Example 35], the pIC50 in assay [1] is 8.77; in assay [2], 8.55; in assay [3], 6.81.

As for `Cc1c(-c2[nH]c3cnc(C4CCN(C(=O)CN(C)C)CC4)cc3c2C(C)C)cn2ncnc2c1C` [Example 36], the pIC50 in assay [1] is 7.72; in assay [2], 7.32; in assay [3] it was 6.68.

For `COc1cc(-c2[nH]c3cnc(C4CCN(C(=O)CN(C)C)CC4)c(F)c3c2C(C)C)cn2ncnc12` [Example 37], the figures for the pIC50 in assay [1], in assay [2] and in assay [3] were 8.48, 8.36 and 6.39, respectively.

Take `COc1cc(-c2[nH]c3cnc(C4CCN(C5COC5)CC4)c(F)c3c2C(C)C)cn2ncnc12` [Example 38]: the pIC50 in assay [1] is 8.55; in assay [2], 7.92; in assay [3], 4.88.

With `CNCC(=O)N1CCC(c2ncc3[nH]c(-c4cc(C)c5ncnn5c4)c(C(C)C)c3c2F)CC1` [Example 39], the pIC50 in assay [1] was 8.19; in assay [2] it was 7.80; in assay [3], 5.26.

On to `CNC(=O)CN1CCN(c2ncc3[nH]c(-c4cc(OC)c5ncnn5c4)c(C(C)C)c3c2C)CC1` [Example 40], for which the figures for the pIC50 in assay [1], in assay [2] and in assay [3] were 8.00, 7.96 and 5.08, respectively.

For the compound `Cc1cc(-c2[nH]c3cnc(C4CCN(CC(F)(F)F)CC4)c(F)c3c2C(C)C)cn2ncnc12` [Example 41], the pIC50 in assay [1] is 7.44; in assay [2], 6.80; in assay [3] it was less than 4.30.

Take `COc1cc(-c2[nH]c3cnc(N4CCC(NC5COC5)CC4)c(F)c3c2C(C)C)cn2ncnc12` [Example 42, 1-(4-fluoro-3-isopropyl-2-(8-methoxy-[1,2,4]triazolo[1,5-a]pyridin-6-yl)-1H-pyrrolo[2,3-c]pyridin-5-yl)-N-(oxetan-3-yl)piperidin-4-amine]: the pIC50 in assay [1] is 8.80; in assay [2], 9.23; in assay [3], 5.04.

For `Cc1cc(-c2[nH]c3cnc(N4CCC(NC5(C)COC5)CC4)c(F)c3c2C(C)C)cn2ncnc12` [Example 43], the negative logarithm of the IC50 (pIC50) in assay [1] was 9.00; in assay [2], 9.22; in assay [3], 4.89.

Turning to `Cc1cc(-c2[nH]c3cnc(N4CCC(N5CC6(COC6)C5)CC4)c(F)c3c2C(C)C)cn2ncnc12` [Example 44], the pIC50 in assay [1] is 9.20; in assay [2] it was 9.44; in assay [3], 5.56.

In the case of `Cc1cc(-c2[nH]c3cnc(N4CCC(N(C)CC(=O)N(C)C)CC4)c(F)c3c2C(C)C)cn2ncnc12` [Example 45], the pIC50 is 8.66 in assay [1], 8.72 in assay [2] and 5.56 in assay [3].

Turning to `Cc1cc(-c2[nH]c3cnc(C4CCC(NCC(C)(C)C)CC4)c(F)c3c2C(C)C)cn2ncnc12` (stereo not drawn) [Example 48], the pIC50 in assay [1] is 7.92; in assay [2] it was 7.89; in assay [3], 5.02.

Take `Cc1cc(-c2[nH]c3cnc(C4CCC(NCC(C)(C)O)CC4)c(F)c3c2C(C)C)cn2ncnc12` (stereo not drawn) [Example 49]: the values for the pIC50 in assay [1], in assay [2] and in assay [3] were 9.34, 9.21 and 5.62, respectively.

As to `Cc1c(-c2[nH]c3cnc(C4CCC(N5CC6(COC6)C5)CC4)c(F)c3c2C(C)C)cn2ncnc2c1C` (stereo not drawn) [Example 50], the values for the pIC50 in assay [1], in assay [2] and in assay [3] were 9.12, 9.08 and 6.00, respectively.

Turning to `Cc1c(-c2[nH]c3cnc(N4CCC(N5CCC5)CC4)c(F)c3c2C(C)C)cn2ncnc2c1C` [Example 51], the pIC50 in assay [1] was 9.13; in assay [2], 9.24; in assay [3], 5.56.

On to `Cc1c(-c2[nH]c3cnc(N4CCC(N(C)C(C)C)CC4)c(F)c3c2C(C)C)cn2ncnc2c1C` [Example 52], for which the pIC50 was 9.01 in assay [1], 9.38 in assay [2] and 5.73 in assay [3].

With `Cc1c(N2CCC(N3CC4(COC4)C3)CC2)ncc2[nH]c(-c3cc(C)c4ncnn4c3)c(C(C)C)c12` [Example 53], the pIC50 in assay [1] is 9.30; in assay [2], 8.70; in assay [3], 5.86.

On to `Cc1c(-c2[nH]c3cnc(N4CCC(NCC5(C)COC5)CC4)c(C)c3c2C(C)C)cn2ncnc2c1C` [Example 54], for which the pIC50 in assay [1] was 9.05; in assay [2], 9.52; in assay [3], 6.03.

As for `CCN(C)C1CCN(c2ncc3[nH]c(-c4cn5ncnc5c(C)c4C)c(C(C)C)c3c2C)CC1` [Example 55], the pIC50 is 8.89 in assay [1], 8.89 in assay [2] and 6.11 in assay [3].
